Laboratory results taken from patent publication US20080227809A1, “Arylalkylamine Vanadium (V) Salts for the Treatment and/or Prevention of Diabetes Mellitus” (GENMEDICA THERAPEUTICS SL, priority 2004, published 2008).

Key:
isolated rat adipocytes = assay: glucose transport (2-deoxyglucose uptake) in isolated rat adipocytes; assay type: cell-based; details: for stimulation of glucose transport at low concentration compared with A and B vanadium salts: 10 μM; for stimulation of glucose transport at low concentration compared with A and B vanadium salts / maximal stimulatory effect on glucose transport, compounds compared: vanadium salts; for maximal stimulatory effect on glucose transport, compounds compared: FIG. 6B; for stimulatory effect on glucose transport in the presence of semicarbazide: 1 mM semicarbazide (SSAO inhibitor)
Experimental: In order to determine whether salts formed by vanadate and benzylamine could produce an insulin mimetic effect, the effect of increasing concentrations of hexaquis(benzylammonium) decavanadate on glucose transport activity in isolated rat adipocytes was tested. Hexaquis(benzylammonium) decavanadate induced the stimulation of glucose transport which was perceptible from concentrations of 0.5 μM, with a maximal effect observed 2.5 μM and the semimaximal effect above 1 μM. […] The maximum effect provoked by incubation with hexaquis(benzylammonium) decavanadate was greater than that produced by the presence of benzylamine and vanadate in combination (FIG. 1). […] In similar assays, the activity of hexaquis(benzylammonium) decavanadate, pentaquis(benzylammonium) decavanadate and tetraquis(benzylammonium) decavanadate on glucose transport activity in isolated rat adipocytes were analyzed.
To determine the possible insulin mimetic effect of certain vanadium arylalkylamines, the capacity of these compounds to enhance glucose transport in isolated rat adipocytes was tested. Adipose cells from Wistar rats were incubated for 45 minutes in basal conditions (Basal) or in the presence of 100 nM insulin (Ins), and different concentrations of. hexaquis(benzylammonium) decavanadate (B6V10) in the absence or in the presence of 1 mM semicarbazide (SCZ). Subsequently, 2-DG transport was measured over a 5 min. interval.
The effects of the three tested compounds (B6V10, B5V10 and B4V10) were compared. Adipose cells from Wistar rats were incubated for 45 minutes in basal conditions (Basal) or in the presence of 100 nM insulin (Ins), and different concentrations of. decavanadate (V10), hexaquis(benzylammonium) decavanadate (B6V10), pentaquis(benzylammonium) decavanadate (B5V10) or tetraquis(benzylammonium) decavanadate (B4V10) in the absence or in the presence of 1 mM semicarbazide (SCZ). 2-DG transport was measured over 5 min. intervals. […] The stimulation of all three compounds on glucose transport was blocked in the presence of semicarbazide.
In additional experiments, compounds shown in FIG. 6A (named 2-(4-fluoro-phenyl)-ethylamine (compound A), 3-phenyl-propylamine (compound B), 4-fluoro-benzylamine (compound C) and 4-phenyl-butylamine (compound D)) were assessed using the experimental methods set forth above for the capacity to stimulate 2-DG uptake in isolated rat adipocytes. Adipose cells from Wistar rats were incubated for 45 minutes in basal conditions (Basal) or in the presence of 100 nM insulin (Ins), and different concentrations of vanadium salts of 2-(4-fluoro-phenyl)-ethylamine (compound A), 3-phenyl-propylamine (compound B), 4-fluoro-benzylamine (compound C) and 4-phenyl-butylamine (compound D). 2-DG transport was measured over 5 min.
(§1) The effects of incubation with semicarbazide or phosphatidylinositol 3-kinase inhibitors were also investigated. Adipose cells were incubated with B6V10 (25 μM, 45 min) in the absence or presence of wortmannin (2 μM, 45 min), LY294002 (10 μM, 45 min) or semicarbazide (1 mM, 45 min) and thereafter 2-deoxyglucose uptake was determined during 5 min. Activation of protein kinase B phosphorylation induced by B6V10 was blocked by semicarbazide and it was not observed by decavanadate. In addition, phosphatidylinositol 3-kinase inhibitors wortmannin and LY294002 blocked B6V10-induced glucose transport (FIG. 7E).

[1] = test system: streptozotocin-induced diabetic rats with undetectable circulating insulin; details: 2.5 μmol/kg subcutaneous by osmotic minipumps, streptozotocin 100 mg/kg
Experimental: Male Wistar rats weighting 180-220 g were purchased from Harlan (Interfauna Ibèrica S.A., Spain). Diabetes was induced by a single intraperitoneal injection of a freshly prepared solution of streptozotocin (in some studies the dose was 45 mg/kg body weight and in some others 100 mg/kg body weight dissolved in 50 mM citrate buffer, pH 4.5). Only diabetic animals with glycemia above 300 mg/dl were used. The animals were housed in animal quarters at 22° C. with a 12 h light/12 h dark cycle and were fed ad libitum. All procedures used were approved by the animal ethical committee of the University of Barcelona, Spain.
Osmotic minipumps delivering B6V10 (2.5 μmol/kg body wt/day) or decavanadate (2.5 μmol/kg body wt/day) were implanted subcutaneously in diabetic rats anaesthetised by ketamine hydrochloride (95 mg/kg) and xylasine (10 mg/kg). […] Glycemia was measured on arterio-venous blood collected from the tail vessels at 09:00 am for two weeks, before the administration of vanadate. Insulin concentrations were determined before and after treatment. In another set of experiments, B6V10 was orally administered at a single dose of 5 μmol/kg/day during the first week and 10 μmol/kg/day during 2 additional weeks by gastric gavage. A control group received the corresponding decavanadate salt in the absence of benzylamine. At the end of the treatment, animals were sacrificed and the liver, fat pad, heart and lung were kept at −80° C. and the plasma at −20° C. until their use for in vitro analysis.
In glucose tolerance tests and in chronic treatments, circulating glucose concentrations were determined by a rapid glucose analyser (Accutrend® Sensor Comfort, Roche, Basel. Switzerland). Plasma insulin (IRI) concentration was determined by ELISA method using a kit obtained from Crystal Chem. Inc. (Downers Grove, Ill.).
To this end, rats were made diabetic by the injection of a large dose of streptozotocin (100 mg/kg) that eliminates β-pancreatic insulin content.

protein kinase B = protein kinase B phosphorylation in isolated rat adipocytes; assay type: cell-based; details: 25 μM
Experimental: Isolated fat cells were disrupted for total membrane preparation by hypo-osmotic lysis in a 20 mM HES buffer and an antiprotease and antiphosphatase cocktail as reported by Abella et al. (2003, Diabetes 52: 1004-1013). Protein concentrations were determined by the Bradford method (Bradford, 1976, Anal. Biochem. 72: 248-254) with gamma-globulin as protein concentration standard. Immunoprecipitation and immunoblot assays were performed as previously described by Abella et al. (2004, Id.) with the use of a monoclonal antiphosphotyrosine antibody for the immunoprecipitation and an anti-insulin receptor antibody for immunobloting, respectively. SDS-polyacrylamide gel electrophoresis was performed on membrane proteins following conventional procedures. Proteins were transferred to Immobilon and immunoblotting was performed as reported by Castello et al. (1994, J. Biol. Chem. 269: 5905-5912).
The mechanism of action of B6V10 was investigated in isolated rat adipocytes. Adipose cells from Wistar rats were incubated for different times in the presence of 25 μM hexaquis(benzylammonium) decavanadate (B6V10). Cells were also incubated in the presence of insulin (100 nM, 45 min), decavanadate (25 μM, 45 min) or semicarbazide (1 mM, 45 min). Subsequently, 2-deoxyglucose uptake (results shown in FIG. 7A), tyrosine phosphorylation of insulin receptor (FIG. 7B), phospho-Thr^308-protein kinase B (FIG. 7C) and phospho-Ser^473-protein kinase B (FIG. 7D) was measured. […] The phosphorylation of protein kinase B induced by B6V10 was parallel to activation of glucose transport (FIGS. 7C and 7D).
as §1

[2] = test system: streptozotocin-induced diabetic rats; assay: chronic oral treatment, glycemia of streptozotocin (45 mg/kg) diabetic rats; assay type: in vivo, rat; details: for effect on glycemia: daily oral administration, 17 days
Experimental: The effect of the oral administration of hexaquis(benzylammonium) decavanadate on glycemia from diabetic rats was also studied. Diabetes was induced in rats by intravenous administration of streptozotocin, and subsequently, a hexaquis(benzylammonium) decavanadate or sodium decavanadate unique dose was administered to the rats. […] After seven days of treatment, the dose was increased at 10 μmol/kg/day which was maintained for an additional ten days. […] Thus, glycemia in sodium decavanadate treated rats was approximately 450 mg/dl and glycemia of hexaquis(benzylammonium) decavanadate treated rats was approximately 250 mg/dl.
(§2) Chronic in vivo efficacy of B6V10 was evaluated in streptozotocin-induced diabetic rats and in db/db mice. Streptozotocin-induced (45 mg/kg) diabetic rats were subcutaneously treated with hexaquis(benzylammonium) decavanadate (2.5 μmol/kg) (B6V10, solid squares, FIG. 8A) or with decavanadate (2.5 μmol/kg) (V10, open circles, FIG. 8A) delivered subcutaneously by osmotic minipumps implanted in the dorsal region. Diabetic rats were also sham-operated (untreated, solid diamonds, FIG. 8A). […] These experiments were repeated using an oral administration protocol. Streptozotocin-induced (45 mg/kg) diabetic rats were orally treated with hexaquis(benzylammonium) decavanadate (5 μmol/kg from day 0 to day 7 and 10 μmol/kg/day from day 7 to day 17) (B6V10, solid squares, FIG. 8B) or received decavanadate (10 μmol/kg) (V10, open circles, FIG. 8B). Nondiabetic rats were also untreated (solid triangles, FIG. 8B).

[3] = test system: streptozotocin-induced diabetic rats; assay: chronic subcutaneous (osmotic minipump) treatment, glycemia of streptozotocin (45 mg/kg) diabetic rats; assay type: in vivo, rat; details: 2.5 μmol/kg/day subcutaneous by osmotic minipumps, about two weeks
Experimental: Insulin concentrations were determined before and after treatment.
The effect of chronic administration of hexaquis(benzylammonium) decavanadate on glycemia from diabetic rats was determined. Thus, diabetes was induced in rats by intravenous administration of streptozotocin, which destroys the β-pancreatic cells that produce insulin.
as §2

[4] = isolated rat adipocytes, 45 min incubation

For `NCc1ccc(F)cc1` [compound C, 4-fluoro-benzylamine], the “stimulation of glucose transport at low concentration compared with A and B vanadium salts” value (isolated rat adipocytes) was “higher”, the “stimulation of glucose transport” value (isolated rat adipocytes; [4]) was “markedly stimulated” and the “maximal stimulatory effect on glucose transport, compounds compared” value (isolated rat adipocytes) was “similar”.

With “sodium decavanadate [reference compound]” the effect on glycemia [1] was “did not show any change in circulating glucose”, the “stimulation of glucose transport” value (isolated rat adipocytes; alone at 5 to 50 μM) was “did not stimulate glucose transport” and the “protein kinase B phosphorylation” value (protein kinase B) was “not observed”. The effect on glycemia [2] was “not affected substantially”, the effect on glycemia ([2]; listed as V10) was “did not alter glycemia” and the glycemia ([2]; oral, after dosage increase to 10 μmol/kg/day) was “approximately 450 mg/dl”. For the same compound, the effect on glycemia [3] was “did not modify substantially its glycemia” and the effect on glycemia ([3]; listed as V10) was “did not alter glycemia”.

In the case of `NCCCCc1ccccc1` [compound D, 4-phenyl-butylamine], the “stimulation of glucose transport at low concentration compared with A and B vanadium salts” value (isolated rat adipocytes) is reported as “higher”, the “stimulation of glucose transport” value (isolated rat adipocytes; [4]) is reported as “markedly stimulated” and the “maximal stimulatory effect on glucose transport, compounds compared” value (isolated rat adipocytes) is reported as “similar”.

In the case of `NCCCc1ccccc1` [compound B, 3-phenyl-propylamine], the “stimulation of glucose transport” value (isolated rat adipocytes; [4]) is reported as “markedly stimulated”.

For “tetraquis(benzylammonium) decavanadate [Example B4V10]”, the “stimulatory effect on glucose transport in the presence of semicarbazide” value (“stimulatory effect … of semicarbazide” for short) (isolated rat adipocytes) was “blocked”, the “stimulatory effect … of semicarbazide” value (isolated rat adipocytes; listed as tetraquis(benzylammonium) decavanadate) was “inhibited” and the “stimulation of glucose transport” value (isolated rat adipocytes; [4]) was “pronounced stimulation”.

With “pentaquis(benzylammonium) decavanadate [Example B5V10]” the “stimulatory effect … of semicarbazide” value (isolated rat adipocytes) was “blocked”, the “stimulatory effect … of semicarbazide” value (isolated rat adipocytes; listed as pentaquis(benzylammonium) decavanadate) was “inhibited” and the “stimulation of glucose transport” value (isolated rat adipocytes; [4]) was “pronounced stimulation”.

For `NCCc1ccc(F)cc1` [compound A, 2-(4-fluoro-phenyl)-ethylamine], the “stimulation of glucose transport” value (isolated rat adipocytes; [4]) was “markedly stimulated”.
